This is an account of results in ChEMBL document CHEMBL1201862, “PubChem BioAssay data set” (2004).

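Step 1: Grow cells in 96-well plates. Step 2: Expose to compound for 48 hours at 5 concentrations. Step 3: Interpolate endpoints linearly; if unreached, use highest concentration. The concentration for 50% growth inhibition is given as GI50.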 Calls of active or inactive are those of the source. Rule as the data show it: active = GI50 up to about 1.1 µM and inactive = higher.

Some test systems named below: 786-0; Malme-3M; CCRF-CEM; DLD-1; K562; NCI-H460; HCT-116; SNB-75; NCI-H23; OVCAR-5; LOX IMVI; COLO 205; M14; MOLT-4; HCC 2998; SF-539; SK-OV-3; CAKI-1.
Common to all, as to assay: NCI anticancer screen, dose series, 48 h

With `CS(=O)(=O)ON1C(=O)c2ccc(N)cc2C1=O`, the GI50 with 786-0 is > 100 µM (inactive); in the assay on Malme-3M, > 100 µM (inactive); in the assay on CCRF-CEM it was 16 µM (inactive); in the assay with DLD-1, > 65.8 µM (inactive); with K562, 42.8 µM (inactive); in the assay on NCI-H460, > 100 µM (inactive). For the same compound, the GI50 is > 79.8 µM (inactive) with HCT-116; > 100 µM (inactive) with SNB-75; > 100 µM (inactive) in the assay on NCI-H23; > 100 µM (inactive) with OVCAR-5; > 72.6 µM (inactive) in the assay with LOX IMVI; 49.5 µM (inactive) with COLO 205. Moreover, the GI50 with M14 was > 87.3 µM (inactive); with MOLT-4 it was 21.4 µM (inactive); in the assay with HCC 2998, > 100 µM (inactive); in the assay on SF-539 it was > 72.9 µM (inactive); in the assay on SK-OV-3 it was > 100 µM (inactive).

On to `c1cc(-c2cn3ccsc3n2)ccn1`, for which the GI50 was 38.4 µM (inactive) in the assay with 786-0; > 100 µM (inactive) with Malme-3M; > 41.8 µM (inactive) in the assay on CCRF-CEM; > 100 µM (inactive) in the assay on DLD-1; > 47.2 µM (inactive) in the assay with K562; 99.3 µM (inactive) in the assay with NCI-H460. Also, the GI50 was > 75.5 µM (inactive) in the assay with HCT-116; > 86.9 µM (inactive) in the assay on SNB-75; > 100 µM (inactive) in the assay with NCI-H23; > 100 µM (inactive) in the assay on OVCAR-5; > 61 µM (inactive) in the assay with LOX IMVI; > 61.9 µM (inactive) in the assay on COLO 205. In addition, the GI50 with M14 was > 100 µM (inactive); in the assay with MOLT-4, > 100 µM (inactive); in the assay on HCC 2998, > 100 µM (inactive); in the assay with SF-539 it was > 100 µM (inactive); with CAKI-1, > 91 µM (inactive); with SK-OV-3 it was > 100 µM (inactive).

On to `Cn1cc(NC(=O)c2cc(NC(=O)CCCCCCC(=O)Nc3cc(C(=O)Nc4cc(C(=O)NCCC(=N)N)n(C)c4)n(C)c3)cn2C)cc1C(=O)NCCC(=N)N`, for which the GI50 in the assay on 786-0 was 12.9 µM (inactive); in the assay on Malme-3M, 2.67 µM (inactive); in the assay on CCRF-CEM, > 100 µM (inactive); in the assay on DLD-1, 18.9 µM (inactive); in the assay with K562, 5.35 µM (inactive); in the assay with NCI-H460, 3.68 µM (inactive). Further, the GI50 is 8.53 µM (inactive) in the assay on HCT-116; 10.1 µM (inactive) with SNB-75; 3.91 µM (inactive) with NCI-H23; > 100 µM (inactive) with OVCAR-5; 5.75 µM (inactive) with LOX IMVI; 6.08 µM (inactive) in the assay on COLO 205. Also, the GI50 is 16 µM (inactive) with M14; 10.7 µM (inactive) in the assay on HCC 2998; 14.1 µM (inactive) in the assay with SF-539; 11 µM (inactive) with CAKI-1; > 100 µM (inactive) in the assay with SK-OV-3.

In the case of `CN(CCO)c1nc(=O)c2c(n1C1OC(CO)C(O)C(O)C1O)CCCC2` (configuration not stated), the GI50 in the assay with 786-0, with Malme-3M, in the assay with CCRF-CEM, with DLD-1, in the assay on K562 and in the assay with NCI-H460 was > 100 µM (inactive) in each case. The GI50 was > 100 µM (inactive) with HCT-116; 62.5 µM (inactive) in the assay on SNB-75; > 100 µM (inactive) in the assay with NCI-H23; > 100 µM (inactive) in the assay on OVCAR-5; > 100 µM (inactive) in the assay with LOX IMVI; > 100 µM (inactive) with COLO 205. The GI50 with M14, in the assay with MOLT-4, with HCC 2998, in the assay on SF-539, with CAKI-1 and in the assay with SK-OV-3 was > 100 µM (inactive) throughout.

Turning to `N#Cc1cccc(-n2[nH]c(=O)ccc2=O)c1`, the GI50 in the assay with 786-0, with Malme-3M, in the assay on CCRF-CEM, in the assay on DLD-1, in the assay with K562 and in the assay on NCI-H460 was > 100 µM (inactive) each time. In addition, the GI50 in the assay with HCT-116 is > 100 µM (inactive); with SNB-75 it was 59.7 µM (inactive); with NCI-H23, > 100 µM (inactive); in the assay with OVCAR-5 it was > 100 µM (inactive); in the assay on COLO 205, > 100 µM (inactive); with M14, > 100 µM (inactive). Further, the GI50 with MOLT-4, in the assay on HCC 2998, with SF-539 and in the assay on CAKI-1 was > 100 µM (inactive) in each case.

For the compound `N=C(N)C1=C(O)NC(=O)N(C2CCCCC2)C1`, the GI50 in the assay with 786-0, in the assay with Malme-3M, with CCRF-CEM, in the assay on DLD-1, with K562 and in the assay on NCI-H460 was > 100 µM (inactive) each time. Besides, the GI50 in the assay on HCT-116, in the assay on SNB-75, in the assay on NCI-H23, in the assay with OVCAR-5, in the assay with LOX IMVI and in the assay on COLO 205 was > 100 µM (inactive) in each case. The GI50 in the assay on M14, with MOLT-4, in the assay on HCC 2998, with SF-539, in the assay on CAKI-1 and in the assay on SK-OV-3 was > 100 µM (inactive) throughout.

On to `COc1cc([C@@H]2c3cc4c(cc3[C@@H](NC(=O)c3ccccc3)C3COC(=O)[C@@H]32)OCO4)cc(OC)c1O` (some centres not stated), for which the GI50 is 4.26 µM (inactive) in the assay with 786-0; 3.61 µM (inactive) with Malme-3M; 1.57 µM (inactive) in the assay on CCRF-CEM; 14.9 µM (inactive) in the assay with DLD-1; 3.27 µM (inactive) in the assay on K562; 0.361 µM (active) in the assay on NCI-H460. Moreover, the GI50 in the assay with HCT-116 was 5.42 µM (inactive); in the assay on SNB-75, 5.43 µM (inactive); with NCI-H23, 2.77 µM (inactive); in the assay with OVCAR-5 it was 49.9 µM (inactive); in the assay on LOX IMVI, 2.52 µM (inactive); in the assay with COLO 205, 17.5 µM (inactive). For the same compound, the GI50 with M14 is 5.57 µM (inactive); in the assay on MOLT-4, 0.491 µM (active); in the assay with HCC 2998 it was 14 µM (inactive); in the assay with SF-539, 6.14 µM (inactive); with CAKI-1, 11.3 µM (inactive); in the assay with SK-OV-3 it was 6.62 µM (inactive).

For `Cc1ccc(C(=O)O)cc1NC(=O)c1cc(/C=C/c2ccccc2)[nH]c(=S)n1`, the GI50 in the assay on 786-0 was > 64.3 µM (inactive); in the assay on Malme-3M, > 100 µM (inactive); in the assay on CCRF-CEM, > 64.7 µM (inactive); with DLD-1, > 49.8 µM (inactive); with K562 it was > 54.8 µM (inactive); in the assay on NCI-H460, > 100 µM (inactive). The GI50 was > 37.8 µM (inactive) in the assay on HCT-116; > 100 µM (inactive) in the assay on SNB-75; > 100 µM (inactive) in the assay on NCI-H23; > 100 µM (inactive) in the assay with OVCAR-5; > 100 µM (inactive) with LOX IMVI; > 65.8 µM (inactive) with COLO 205. The GI50 in the assay with M14, in the assay on MOLT-4, in the assay on HCC 2998, in the assay on SF-539, in the assay with CAKI-1 and with SK-OV-3 was > 100 µM (inactive) each time.

Turning to `O=[N+]([O-])c1ccc(-c2noc(-c3ccccc3)c2C2=NCCN2)cc1`, the GI50 in the assay on 786-0 is 54 µM (inactive); with Malme-3M, > 100 µM (inactive); with CCRF-CEM, > 100 µM (inactive); with DLD-1, > 100 µM (inactive); with K562, > 100 µM (inactive); in the assay on NCI-H460, > 100 µM (inactive). For the same compound, the GI50 in the assay with HCT-116 was 30.1 µM (inactive); with SNB-75, 68.5 µM (inactive); in the assay on OVCAR-5 it was > 100 µM (inactive); with LOX IMVI, 71 µM (inactive); with COLO 205 it was 45.5 µM (inactive); in the assay on M14 it was 87.9 µM (inactive). Besides, the GI50 is > 100 µM (inactive) in the assay on MOLT-4, > 100 µM (inactive) in the assay on HCC 2998, 42.7 µM (inactive) in the assay on SF-539 and 40.3 µM (inactive) with CAKI-1.

For the compound `CCN(CC)CCOC(c1ccccc1)c1ccccc1.CCOC(=O)Nc1ccc(S(=O)(=O)NCCCl)cc1.CCOC(=O)Nc1ccc(S(=O)(=O)NCCCl)cc1.Nc1ccc(C(=O)O)c(O)c1`, the GI50 with 786-0, with Malme-3M, in the assay on CCRF-CEM, in the assay on DLD-1, in the assay on K562 and in the assay on NCI-H460 was > 100 µM (inactive) in each case. Also, the GI50 with HCT-116, in the assay with SNB-75, with NCI-H23, in the assay with OVCAR-5, in the assay on LOX IMVI and in the assay with COLO 205 was > 100 µM (inactive) throughout. Further, the GI50 in the assay with M14, in the assay with MOLT-4, in the assay on HCC 2998, with SF-539, in the assay on CAKI-1 and in the assay with SK-OV-3 was > 100 µM (inactive) in each case.

For the compound `O.O=C([O-])c1ccccc1Nc1ccccc1C(=O)[O-].[Zn+2]`, the GI50 in the assay with 786-0 was 24.1 µM (inactive); with Malme-3M, 23.2 µM (inactive); with CCRF-CEM, 24.1 µM (inactive); in the assay with DLD-1 it was 29.2 µM (inactive); in the assay on K562, 28.9 µM (inactive); in the assay on NCI-H460 it was > 65.9 µM (inactive). Besides, the GI50 with HCT-116 was 38.4 µM (inactive); in the assay on SNB-75 it was 18.3 µM (inactive); in the assay on NCI-H23, 18.2 µM (inactive); with OVCAR-5 it was 28.2 µM (inactive); in the assay on LOX IMVI, 22 µM (inactive); in the assay on COLO 205, > 49.7 µM (inactive). The GI50 with M14 was 35.1 µM (inactive); in the assay with MOLT-4, 30.5 µM (inactive); in the assay with HCC 2998 it was > 100 µM (inactive); with SF-539, 37.7 µM (inactive); in the assay with CAKI-1, 5.08 µM (inactive); with SK-OV-3, 20.4 µM (inactive).
